In US20240156825A1, “USE OF SELECTIVE VEGFR2 AND FGFR1 INHIBITORS” (Fountain Therapeutics Inc., priority 2022, published 2024):
Like-named read-outs stand apart in the source and are kept apart here.

Columns and labels:
FGFR1 = FGFR1 (Homo sapiens, UniProt P11362)
VEGFR2 and FGFR1 = experiment: Selection of compounds that selectively inhibit both VEGFR2 and FGFR1 (average relative IC50); type: biochemical;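 also: relative IC50 is the IC50 for VEGFR2 or FGFR1 divided by the next-lowest IC50 reported against any target gene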
VEGFR2 = VEGFR2 (Homo sapiens, UniProt P35968)
VEGFR2, sequence (P35968 20-1356, species assumed): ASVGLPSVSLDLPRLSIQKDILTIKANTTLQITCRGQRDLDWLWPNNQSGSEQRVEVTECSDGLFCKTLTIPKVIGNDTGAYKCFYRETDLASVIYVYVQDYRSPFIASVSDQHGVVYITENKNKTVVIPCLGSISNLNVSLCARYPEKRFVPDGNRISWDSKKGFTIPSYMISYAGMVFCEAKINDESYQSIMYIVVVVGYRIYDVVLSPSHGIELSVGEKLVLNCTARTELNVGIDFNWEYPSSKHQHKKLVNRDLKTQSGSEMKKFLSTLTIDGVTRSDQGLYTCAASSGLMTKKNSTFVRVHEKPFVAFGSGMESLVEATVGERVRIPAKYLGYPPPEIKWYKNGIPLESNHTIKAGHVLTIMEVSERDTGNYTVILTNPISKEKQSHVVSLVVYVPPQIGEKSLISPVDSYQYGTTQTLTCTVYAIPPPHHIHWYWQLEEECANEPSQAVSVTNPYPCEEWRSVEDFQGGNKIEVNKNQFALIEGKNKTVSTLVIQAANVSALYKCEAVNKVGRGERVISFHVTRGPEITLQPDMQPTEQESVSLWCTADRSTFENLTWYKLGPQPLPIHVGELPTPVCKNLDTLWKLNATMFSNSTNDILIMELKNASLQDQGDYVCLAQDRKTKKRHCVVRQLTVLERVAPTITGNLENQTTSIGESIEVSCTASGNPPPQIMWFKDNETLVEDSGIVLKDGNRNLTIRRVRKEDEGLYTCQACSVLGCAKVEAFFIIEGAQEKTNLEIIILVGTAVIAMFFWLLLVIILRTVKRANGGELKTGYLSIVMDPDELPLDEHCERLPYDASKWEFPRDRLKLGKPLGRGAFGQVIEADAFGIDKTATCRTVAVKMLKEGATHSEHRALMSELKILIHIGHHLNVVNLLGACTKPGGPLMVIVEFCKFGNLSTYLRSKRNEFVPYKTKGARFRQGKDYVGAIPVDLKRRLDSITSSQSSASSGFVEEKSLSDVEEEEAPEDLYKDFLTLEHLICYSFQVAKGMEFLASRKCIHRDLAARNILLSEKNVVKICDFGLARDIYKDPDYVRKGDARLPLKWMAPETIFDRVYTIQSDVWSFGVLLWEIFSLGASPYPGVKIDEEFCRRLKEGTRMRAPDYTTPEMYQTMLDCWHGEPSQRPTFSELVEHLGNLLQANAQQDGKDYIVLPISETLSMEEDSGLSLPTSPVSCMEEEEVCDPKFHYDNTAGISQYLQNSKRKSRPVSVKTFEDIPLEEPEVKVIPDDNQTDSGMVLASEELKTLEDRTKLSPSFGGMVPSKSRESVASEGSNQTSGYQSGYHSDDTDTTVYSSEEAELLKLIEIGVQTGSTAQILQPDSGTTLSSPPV

any gene target = conditions: cited from earlier work
[1] = relative IC50: reported IC50 toward FGFR1 divided by next lowest reported IC50 to any gene target
[2] = average of VEGFR2 and FGFR1 relative IC50
[3] = relative IC50: reported IC50 toward VEGFR2 divided by next lowest reported IC50 to any gene target
[4] = lowest reported IC50 to any gene target, read-out: min IC50
[5] = next lowest IC50 value to any gene target, read-out: Min IC50_μM

FGFR1, sequence (P11362 22-822, species assumed): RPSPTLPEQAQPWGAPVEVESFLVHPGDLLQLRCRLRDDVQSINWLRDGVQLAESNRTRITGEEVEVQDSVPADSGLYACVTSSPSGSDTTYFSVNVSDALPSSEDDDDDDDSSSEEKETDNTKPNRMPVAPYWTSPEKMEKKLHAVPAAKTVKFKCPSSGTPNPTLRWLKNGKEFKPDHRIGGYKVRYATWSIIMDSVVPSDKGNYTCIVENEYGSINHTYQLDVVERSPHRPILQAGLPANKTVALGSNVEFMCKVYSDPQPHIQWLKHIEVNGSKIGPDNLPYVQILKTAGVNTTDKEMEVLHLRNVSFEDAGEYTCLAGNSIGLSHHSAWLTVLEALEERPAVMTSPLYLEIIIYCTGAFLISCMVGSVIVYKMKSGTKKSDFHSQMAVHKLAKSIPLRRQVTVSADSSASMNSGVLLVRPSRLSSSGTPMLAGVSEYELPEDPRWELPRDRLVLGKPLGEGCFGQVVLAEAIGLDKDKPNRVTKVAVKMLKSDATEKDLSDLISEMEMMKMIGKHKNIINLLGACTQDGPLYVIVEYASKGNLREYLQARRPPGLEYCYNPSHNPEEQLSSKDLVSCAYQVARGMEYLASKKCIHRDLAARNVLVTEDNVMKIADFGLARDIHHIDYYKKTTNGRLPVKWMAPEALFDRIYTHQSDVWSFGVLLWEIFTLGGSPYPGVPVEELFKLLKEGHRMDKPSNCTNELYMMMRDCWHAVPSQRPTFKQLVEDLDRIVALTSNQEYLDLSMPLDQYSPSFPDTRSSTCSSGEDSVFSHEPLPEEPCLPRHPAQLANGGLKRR

Row | Molecule | FGFR1, rIC50 (FGFR1; [1]) | avg rIC50 (VEGFR2 and FGFR1; [2]) | VEGFR2, rIC50 (VEGFR2; [3]) | IC50 (any gene target; [4]) | other results
1 | CONC(=O)c1cc(Nc2ncnn3cc(-c4nnc(C(F)F)o4)c(C(C)C)c23)c(F)cc1F [compound 10073832, 5-[6-(5-Difluoromethyl-[1,3,4]oxadiazol-2-yl)-5-isopropyl-pyrrolo[2,1-f][1,2,4]triazin-4-ylamino]-2,4-difluoro-N-methoxy-benzamide] | 1.2 | 1.1 | 1.0 |  | 
2 | O=C1c2ccc(O)c(O)c2OC[C@]1(O)Cc1ccc(O)c(O)c1 [compound 44578561, Hematoxylone] | 3.4 | 5.3 | 7.2 |  | 
3 | CCS(=O)(=O)c1ccc2c(c1)C(=Cc1[nH]c3c(c1CN1CCOCC1)CCCC3)C(=O)N2 [compound 44299203, 3-[3-(Morpholinomethyl)-4,5,6,7-tetrahydro-1H-indole-2-ylmethylene]-5-(ethylsulfonyl)-2,3-dihydro-1H-indole-2-one] | 5.7 | 3.6 | 1.4 | 70 nM | 
4 | COc1ccc(N2Cc3cnc(Nc4ccccc4)nc3N([C@@H]3CC[C@@H](O)C3)C2=O)cc1 [compound 9910609, (+)-(1R,3R)-1-(3-Hydroxy-cyclopentyl)-3-(4-methoxy-phenyl)-7-phenylamino-3,4-dihydro-1H-pyrimido[4,5-d]pyrimidin-2-one] | 2.4 | 1.4 | 0.4 | 28 nM | IC50 (any gene target; [5]): 28 nM
5 | COc1ccc(N2Cc3cnc(Nc4ccc(F)cc4)nc3N([C@@H]3CC[C@@H](O)C3)C2=O)cc1 [compound 11396738, 7-(4-Fluoroanilino)-1-[(1R,3R)-3-hydroxycyclopentyl]-3-(4-methoxyphenyl)-4H-pyrimido[4,5-d]pyrimidin-2-one, reference compound] |  |  | 0.6 |  | avg rIC50 (VEGFR2 and FGFR1): 1.2; IC50 (any gene target; read-out: Min IC50_μM): 83 nM; IC50 (any gene target; read-out: min IC50): 83 nM
6 | C[C@@H](Oc1ccc2[nH]nc(-c3nc4cc(N5CCN(C)CC5)ccc4[nH]3)c2c1)c1c(Cl)cncc1Cl [compound 136211077, 5-[(R)-1-(3,5-Dichloropyridine-4-yl)ethoxy]-3-[5-(4-methylpiperazine-1-yl)-1H-benzoimidazole-2-yl]-1H-indazole] | 0.4 | 4.4 | 8.3 | 1 nM | IC50 (any gene target; Table 2, lowest reported IC50 to any gene target, read-out: Min IC50_μM): 2 nM
7 | COc1cc2c(cc1F)C(c1ccccc1Cl)=NC1=C(C)NNC1=N2 [compound 135398512, 5-(2-Chlorophenyl)-7-fluoro-1,2-dihydro-8-methoxy-3-methylpyrazolo(3,4-b)(1,4)benzodiazepine] |  | 1.6 |  |  | FGFR1, rIC50 (FGFR1): 2.8; VEGFR2, rIC50 (VEGFR2): 0.4; IC50 (any gene target; read-out: Min IC50_μM): 24 nM; IC50 (any gene target; read-out: min IC50): 24 nM
8 | Fc1ccc2c(-c3nc4cc(N5CCC(N6CCCCC6)CC5)ccc4[nH]3)n[nH]c2c1 [compound 135458467, 2-(6-Fluoro-1H-indazol-3-yl)-5-(4-(piperidin-1-yl)piperidin-1-yl)-1H-benzo[d]imidazole] | 2.0 | 1.8 | 1.6 | 16 nM | 
9 | COC(=O)Nc1ccc(-c2c(OC3CCN(C)CC3)nc3c(-c4ccc(OC)c(OC)c4)cnn3c2N)cc1 [compound 156010414, Methyl N-[4-[7-amino-3-(3,4-dimethoxyphenyl)-5-(1-methylpiperidin-4-yl)oxypyrazolo[1,5-a]pyrimidin-6-yl]phenyl]carbamate] | 1.7 | 3.0 | 4.3 | 6 nM | 
10 | CN(C)CCCc1cccc(Nc2ncc3c(n2)-c2ccc(Cl)cc2NC(=S)C3)c1 [compound 56945277, 9-Chloro-2-[3-[3-(dimethylamino)propyl]anilino]-5,7-dihydropyrimido[5,4-d][1]benzazepine-6-thione] | 2.4 |  |  |  | 
11 | CONC(=O)c1cc(Nc2ncnn3cc(-c4nnc(C(F)(F)S(C)(=O)=O)o4)c(C(C)C)c23)c(F)cc1F [compound 11432911, 5-{6-[5-(Difluoro-methanesulfonyl-methyl)-[1,3,4]oxadiazol-2-yl]-5-isopropyl-pyrrolo[2,1-f][1,2,4]triazin-4-ylamino}-2,4-difluoro-N-methoxy-benzamide] | 4.8 | 2.9 | 1.0 |  | 
12 | Cc1nnc(-c2cn3ncnc(Nc4cnc5[nH]ccc5c4)c3c2C(C)C)o1 [compound 44449577, 6-(5-Methyl-1,3,4-oxadiazol-2-yl)-5-propan-2-yl-N-(1H-pyrrolo[2,3-b]pyridin-5-yl)pyrrolo[2,1-f][1,2,4]triazin-4-amine] |  |  | 0.5 |  | FGFR1, rIC50 (FGFR1): 2.0; avg rIC50 (VEGFR2 and FGFR1): 1.2; IC50 (any gene target; read-out: Min IC50_μM): 61 nM; IC50 (any gene target; read-out: min IC50): 61 nM
13 | Chembl4449189 [compound 155520650] | 1.2 | 1.8 | 2.4 | 110 nM | 
14 | COC(=O)c1ccc2c(C(=Nc3ccc(CN(C)C(=O)N(C)C)cc3)c3ccccc3)c(O)[nH]c2c1 [compound 135837837, Methyl 3-[N-[4-[[dimethylcarbamoyl(methyl)amino]methyl]phenyl]-C-phenylcarbonimidoyl]-2-hydroxy-1H-indole-6-carboxylate] | 5.0 | 5.6 | 6.1 | 10 nM | 
15 | Nc1c(-c2nc3ccccc3[nH]2)c(=O)[nH]c2ccccc12 [compound 135410282, 4-Amino-3-(1H-benzo[d]imidazol-2-yl)quinolin-2(1H)-one] | 3.0 | 4.4 | 5.8 | 10 nM | 
16 | CONC(=O)c1cc(Nc2ncnn3cc(-c4nnc(C)[nH]4)c(C(C)C)c23)c(F)cc1F [compound 11328182, 2,4-Difluoro-5-[5-isopropyl-6-(5-methyl-4H-[1,2,4]triazol-3-yl)-pyrrolo[2,1-f][1,2,4]triazin-4-ylamino]-N-methoxy-benzamide] |  |  | 1.1 | 46 nM | FGFR1, rIC50 (FGFR1): 1.0; avg rIC50 (VEGFR2 and FGFR1): 1.0; IC50 (any gene target; lowest reported IC50 to any gene target, read-out: Min IC50_μM): 46 nM
17 | Cc1cc2cc(Nc3ncnn4cc(-c5nnc(C)o5)c(C(C)C)c34)cnc2[nH]1 [compound 22273644, 5-Isopropyl-6-(5-methyl-1,3,4-oxadiazol-2-yl)-N-(2-methyl-1H-pyrrolo[2,3-b]pyridin-5-yl)pyrrolo[2,1-f][1,2,4]triazin-4-amine] | 3.1 | 1.8 | 0.5 | 25 nM | IC50 (any gene target; [5]): 53 nM
18 | COc1ccc(N2Cc3cnc(Nc4ccccc4)nc3N([C@H]3CC[C@H](O)C3)C2=O)cc1 [compound 11407794, (−)-(1S,3S)-1-(3-Hydroxy-cyclopentyl)-3-(4-methoxy-phenyl)-7-phenylamino-3,4-dihydro-1H-pyrimido[4,5-d]pyrimidin-2-one] | 2.5 | 1.5 | 0.5 | 33 nM | IC50 (any gene target; [5]): 33 nM
19 | CNC(=O)c1cccc2cc(Oc3ccnc4cc(OCC5(N)CC5)c(OC)cc34)ccc12 [compound 25031915, Lucitanib] |  | 3.0 | 3.6 | 10 nM | FGFR1, rIC50 (FGFR1): 2.5
20 | COC(=O)c1ccc2c(c1)NC(=O)/C2=C(\Nc1ccc(CN2CCCCC2)cc1)c1ccccc1 [compound 135476706, Methyl (3Z)-2-oxo-3-[phenyl-[4-(piperidin-1-ylmethyl)anilino]methylidene]-1H-indole-6-carboxylate] |  |  | 1.1 |  | avg rIC50 (VEGFR2 and FGFR1): 1.7; IC50 (any gene target; read-out: min IC50): 32 nM
21 | Chembl4573547 [compound 155563388] | 1.9 | 1.5 | 1.1 | 150 nM | 
22 | NC(=O)c1c(OCc2c(F)cc(Br)cc2F)nsc1NC(=O)NCCCCN1CCCC1 [compound 9811611, 3-((4-Bromo-2,6-difluorobenzyl)oxy)-5-(3-(4-(pyrrolidin-1-yl)butyl)ureido)isothiazole-4-carboxamide] | 6.7 | 3.6 | 0.4 | 1 nM | IC50 (any gene target; [5]): 3.08 nM
23 | COC(=O)c1ccc2c(c1)NC(=O)/C2=C(\Nc1ccc(N(C)C(=O)CN2CCN(C)CC2)cc1)c1ccccc1 [compound 135476717, Nintedanib esylate] |  |  | 1.6 | 13 nM | avg rIC50 (VEGFR2 and FGFR1): 3.5
24 | CNC(=O)c1cccc2cc(Oc3ccnc4cc(OCC5(N)CC5)c(OC)cc34)ccc12.Cl [compound 57379018, 6-((7-((1-Aminocyclopropyl)methoxy)-6-methoxyquinolin-4-yl)oxy)-N-methyl-1-naphthamide hydrochloride] |  | 3.0 | 3.6 |  | FGFR1, rIC50 (FGFR1): 2.5; IC50 (any gene target; read-out: min IC50): 10 nM
25 | Chembl4213341 [compound 138393067] | 8.7 | 5.2 | 1.7 | 37 nM | 
